Data as given in publication PMC6022219, “Identification and Characterization of a Novel Palmitoyl Acyltransferase as a Druggable Rheostat of Dynamic Palmitoylome in L. donovani” (Frontiers in Cellular and Infection Microbiology, 2018).

Assays:
LdPAT4-DHHC [1] = target: T1, LdPAT4-DHHC (Leishmania donovani, UniProt A0A3S7X1Q3); assay: click-chemistry metabolic labelling of E. coli expressing LdPAT4-DHHC, Oregon Green […] fluorometry; assay type: cell-based; settings: substrate Alk-C16 100 uM, induced E. coli Rosetta cells, 37 C, 6 h; 2-BMP concentration not stated
T1 construct: gene LdCL_280025100; DHHC domain only (423 bp), N-terminal GST tag (pGEX-4T-1, BamHI/SalI), E. coli Rosetta, ~40 kDa with tag
T1 sequence (A0A3S7X1Q3 268-407): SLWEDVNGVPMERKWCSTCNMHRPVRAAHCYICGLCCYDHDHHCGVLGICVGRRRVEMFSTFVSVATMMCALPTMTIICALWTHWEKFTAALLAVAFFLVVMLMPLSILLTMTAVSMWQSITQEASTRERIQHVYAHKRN

LdPAT4-DHHC [2] = target: T1, LdPAT4-DHHC; assay: as above; assay type: cell-based; settings: 100 uM Alk-C16, induced E. coli Rosetta cells, 37 C, 6 h; labelled compound (alkyne probe)

Structure (SMILES) | reduction in fluorescence intensity (LdPAT4-DHHC [1]) | click-chemistry metabolic labelling of E. coli expressing LdPAT4-DHHC, Oregon Gr (LdPAT4-DHHC [2])
CCCCCCCCCCCCCCC(Br)C(=O)O (centres unmarked) [2-BMP] | following 2-BMP treatment of induced cells, reduction in fluorescence intensity was detected | –
C#CCCCCCCCCCCCCCC(=O)O [Alk-C16] | – | predominant incorporation of palmitic acid analogs into transformed E. coli
